What was measured:
[1] = test system: eIF2α phosphorylation (HeLa cells); experiment: Protein analyses on immunoblots, HeLa cells; type: cell-based, human; details: for eIF2α phosphorylation: 0-10 h
Experimental: HeLa or MEF cells (90,000 cells/mL) were plated in 12-well plates (1 mL/well). The following day cells were treated as indicated; the medium was removed, fresh medium containing compound added and incubated at 37°C for the times indicated. The time course was performed in reverse order to facilitate collecting all samples at the same time. At the end of treatment cells were washed two times with ice-cold PBS and lysed in 150 μL Laemmli Buffer. Lysates were transferred to 1.5 mL eppendorf tubes, boiled at 95°C for 5 min, sonicated and resolved on Bolt SDS-PAGE 4%–12% Bis-Tris gels (ThermoFisher Scientific). Proteins were transferred to the nitrocellulose membrane using the iBlot 2 system (ThermoFisher Scientific). Membrane was blocked in 5% skimmed milk for 30 min and then probed with primary antibodies followed by incubation with the appropriate horseradish peroxidase-conjugated secondary antibodies (Promega). Proteins were visualized using ECL Prime (GE Healthcare) and imaged in the Chemi-Smart 5000 (Vilber-Lourmat, France) or ChemiDoc Touch (BioRad). Bands were quantified using ImageJ (NIH, USA). The following primary antibodies were used: e-IF2α-P (ThermoFisher Scientific (#44-728G), 1:1,000), e-IF2α (Abcam (#ab5369), 1:1,000), tubulin (Sigma-Aldrich (#T5168), 1:4,000), BiP (BD Biosciences PharMingen (#610978), 1:1,000), ATF4 (Santa Cruz Biotechnology (#sc-200), 1:500), Ppp1r15a (Proteintech (#10449-1-AP), 1:1,000), Ppp1r15b (Proteintech (#14634-1-AP), 1:1,000) and CHOP (ABR Affinity BioReagents (#MA1-250), 1:1,000).

[2] = molecular target: T1, R15B (Homo sapiens, UniProt Q5SWA1); experiment: Limited trypsin digestion of R15B; details: R15 3 μM, compound 100 μM, trypsin 5 nM, 5 min, 22°C
T1 construct: cDNAs encoding amino acids 325-636 of R15A and 340-698 of R15B were cloned into pMAL-c5x; made in house; host or cells: E. coli BL21-Gold (DE3) pLysS
T1 sequence (Q5SWA1 340-698): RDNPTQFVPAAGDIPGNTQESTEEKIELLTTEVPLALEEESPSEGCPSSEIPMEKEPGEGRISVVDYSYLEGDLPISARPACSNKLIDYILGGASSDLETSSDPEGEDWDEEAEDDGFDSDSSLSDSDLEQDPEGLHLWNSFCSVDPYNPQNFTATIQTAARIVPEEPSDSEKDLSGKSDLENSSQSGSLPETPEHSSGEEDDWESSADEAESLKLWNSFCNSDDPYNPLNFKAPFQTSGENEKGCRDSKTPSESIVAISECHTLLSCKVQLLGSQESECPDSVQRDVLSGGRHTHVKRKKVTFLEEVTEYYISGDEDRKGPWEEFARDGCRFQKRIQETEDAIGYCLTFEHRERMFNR
Experimental: Reactions were initiated by addition of 5 nM of trypsin from bovine pancreas (Sigma-Aldrich), made up in PBS, and allowed to proceed for 5 min at 22°C, with shaking at 350 rpm. […] Proteins were visualized by staining with InstantBlue Protein Stain (Expedeon).

[3] = molecular target: T2, R15B^340–698 (Homo sapiens, UniProt Q5SWA1); experiment: eIF2α pull down with MBP-tagged R15B; type: biochemical; details: Raphin1 200 μM, P-eIF2α 1 μM
T2 construct: made in house; host or cells: E. coli BL21-Gold (DE3) pLysS
T2 sequence (Q5SWA1 340-698): as above
Experimental: Recombinant eIF2α was produced as described in [Ito et al. (2004)] and pull down experiments were carried out as previously described ([Carrara et al., 2017]). Amylose beads (New England BioLabs) were pre-equilibrated with interaction buffer (50 mM Tris pH 7.4, 200 mM NaCl, 0.05% Tween20). 20 μL amylose beads were incubated with purified MBP-tagged R15s (200 nM), P-eIF2α (1 μM) as appropriate, plus 200 μM Raphin1, or DMSO vehicle in a total volume of 200 μL. Input samples (5%) was removed at this step, and added to 4% SDS-Laemmli sample buffer. Beads were incubated for 10 min at 4°C with 20 rpm gentle rotation. The beads were washed 5 × 1 mL with interaction buffer, transferred to a fresh tube and finally resuspended with 50 μL 4% SDS-Laemmli sample buffer. Eluded beads were boiled and then run on 4%–12% NuPAGE Bis-Tris gels (ThermoFisher Scientific). Anti-MBP HRP (New England BioLabs (#E8038); 1:5,000) (to probe for R15s) and anti-eIF2α (AbCam (#ab26197); 1:1,000) antibodies were used for immunoblotting analyses of samples.

Compound: [H]/N=C(\N)NN=Cc1cccc(Cl)c1Cl [Raphin1, (E)-2-(2,3-dichlorobenzylidene)hydrazine-1-carboximidamide]
- ATF4 and R15A induction ([1]; 10 μM): induced
- Stress marker BiP ([1]; 10 μM): did not increase
- eIF2α phosphorylation ([1]; 20 μM): persistent phosphorylation
- eIF2α phosphorylation ([1]; unstressed, 10 μM): rapidly and transiently increased
- Protease sensitivity of R15B (limited proteolysis, conformational change) [2]: protected
- Recruitment of eIF2α to R15B [3]: decreased
